Results reported in US9718788B2, “Heteroaryl compounds useful as inhibitors of E1 activating enzymes” (MILLENNIUM PHARMACEUTICALS, INC., priority 2006, dated 2017).

Molecular target: T1, recombinant human NAE enzyme (Homo sapiens, UniProt Q8TBC4)
T1 construct: His (N); made in house; host or cells: Sf9 insect cells (baculovirus, Bac-to-Bac)
T1 sequence (Q8TBC4 1-463): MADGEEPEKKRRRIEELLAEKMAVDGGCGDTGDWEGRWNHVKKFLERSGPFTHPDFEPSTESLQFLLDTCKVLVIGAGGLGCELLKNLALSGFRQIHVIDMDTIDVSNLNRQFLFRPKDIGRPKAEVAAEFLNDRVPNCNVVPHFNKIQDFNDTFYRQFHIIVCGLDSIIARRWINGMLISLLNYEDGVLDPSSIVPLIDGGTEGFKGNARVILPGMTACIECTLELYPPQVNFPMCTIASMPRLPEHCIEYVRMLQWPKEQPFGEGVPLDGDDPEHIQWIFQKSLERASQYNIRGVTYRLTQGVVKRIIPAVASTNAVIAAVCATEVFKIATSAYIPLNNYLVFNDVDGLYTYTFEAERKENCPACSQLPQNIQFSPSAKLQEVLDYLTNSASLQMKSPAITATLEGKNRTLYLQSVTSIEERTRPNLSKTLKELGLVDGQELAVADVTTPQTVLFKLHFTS
T1 sequence (Q13564 1-534 partner): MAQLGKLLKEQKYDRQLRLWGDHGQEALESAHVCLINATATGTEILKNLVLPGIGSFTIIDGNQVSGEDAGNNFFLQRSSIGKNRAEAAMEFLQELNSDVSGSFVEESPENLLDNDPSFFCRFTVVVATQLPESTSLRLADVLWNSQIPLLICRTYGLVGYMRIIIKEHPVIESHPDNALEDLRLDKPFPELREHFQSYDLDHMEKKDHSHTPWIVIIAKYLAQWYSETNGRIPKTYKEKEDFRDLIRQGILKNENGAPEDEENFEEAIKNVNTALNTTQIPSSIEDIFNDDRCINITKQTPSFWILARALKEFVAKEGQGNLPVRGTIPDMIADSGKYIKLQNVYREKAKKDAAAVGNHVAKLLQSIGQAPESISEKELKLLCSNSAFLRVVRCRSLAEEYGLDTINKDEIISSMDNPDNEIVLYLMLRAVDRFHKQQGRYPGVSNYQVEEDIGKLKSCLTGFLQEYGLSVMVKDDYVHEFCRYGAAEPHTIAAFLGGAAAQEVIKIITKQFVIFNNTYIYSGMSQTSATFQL
Experiment: Nedd8-Activating Enzyme (NAE) HTRF Assay
Assay type: biochemical
Settings: 20 μM ATP
Protocol: Following manufacturer instructions, baculoviruses were generated with the Bac-to-Bac Expression System (Invitrogen) for the following proteins: untagged NAEα (APPBP1; NP_003896.1), N-terminally His-tagged NAEJ (UBE1C; NP_003959.3), untagged SAEα (SAE1; NP_005491.1), N-terminally His-tagged SAE3 (UBA2; NP_005490.1), N-terminally His-tagged murine UAE (UBE1X; NP_033483). NAEα/His-NAEβ and SAEα/His-SAEβ complexes were generated by co-infection of Sf9 cells, which were harvested after 48 hours. His-mUAE was generated by single infection of Sf9 cells and harvested after 72 hours. Expressed proteins were purified by affinity chromatography (Ni-NTA agarose, Qiagen) using standard buffers. Nedd8-Activating Enzyme (NAE) HTRF Assay. The NAE enzymatic reaction totaled 50 μL and contained 50 mM HEPES (pH 7.5), 0.05% BSA, 5 mM MgCl2, 20 μM ATP, 250 μM GSH, 0.01 μM Ubc12-GST, 0.075 μM Nedd8-Flag and 0.20 nM recombinant human NAE enzyme. The enzymatic reaction mixture, with and without compound inhibitor, was incubated at room temperature 24° C. for 105 minutes in a 384-well plate before termination with 25 μL of Stop/Detection buffer (0.1M HEPES pH 7.5, 0.05% Tween20, 20 mM EDTA, 410 mM KF, 0.53 nM Europium-Cryptate labeled monoclonal anti-FLAG M2 antibody (CisBio International) and 8.125 μg/mL PHYCOLINK goat anti-GST allophycocyanin (XL-APC) antibody (Prozyme)). After incubation for 1 hour at 24° C., quantification of the FRET was performed on the Analyst™ HT 96.384 (Molecular Devices).

NS(=O)(=O)OC[C@H]1C[C@@H](Nc2cc(N[C@H]3CCc4c(F)cccc43)ncn2)[C@H](O)[C@@H]1O [Compound I-1, {(1R,2R,3S,4R)-4-[(6-{[(1S)-4-fluoro-2,3-dihydro-1H-inden-1-yl]amino}-pyrimidin-4-yl)-amino]-2,3-dihydroxycyclopentyl}methyl sulfamate]
IC50 (bound given in nM): ≤ 500 nM

CO[C@H]1Cc2ccccc2[C@H]1Nc1cc(N[C@@H]2C[C@H](COS(N)(=O)=O)[C@@H](O)[C@H]2O)ncn1 [Compound I-2, {(1R,2R,3S,4R)-2,3-dihydroxy-4-[(6-{[(1R,2S)-2-methoxy-2,3-dihydro-1H-inden-1-yl]-amino}pyrimidin-4-yl)amino]cyclopentyl}methyl sulfamate]
IC50 (bound given in nM): ≤ 500 nM

NS(=O)(=O)OC[C@H]1C[C@@H](Nc2ncnc3[nH]cnc23)[C@H](O)[C@@H]1O [Compound I-3, [(1R,2R,3S,4R)-2,3-dihydroxy-4-(9H-purin-6-ylamino)cyclopentyl]methyl sulfamate]
IC50 (bound given in nM): ≤ 500 nM

NS(=O)(=O)OC[C@H]1C[C@@H](Nc2ccnc(NCC3CCCCC3)n2)[C@H](O)[C@@H]1O [Compound I-4, [(1R,2R,3S,4R)-4-({2-[(cyclohexylmethyl)amino]pyrimidin-4-yl}amino)-2,3-dihydroxycyclopentyl]methyl sulfamate]
IC50 (bound given in nM): > 500 nM | IC50 (bound given in μM): < 10000 nM

NS(=O)(=O)OC[C@@H]1C[C@@H](Nc2cc(N[C@H]3CCc4ccccc43)ncn2)C[C@@H]1O [Compound I-5, [(1S,2S,4R)-4-({6-[(1S)-2,3-dihydro-1H-inden-1-ylamino]pyrimidin-4-yl}amino)-2-hydroxycyclopentyl]methyl sulfamate]
IC50 (bound given in nM): ≤ 500 nM

NS(=O)(=O)OC[C@H]1C[C@@H](Nc2cc(N[C@H]3CCc4c(F)ccc(F)c43)ncn2)[C@H](O)[C@@H]1O [Compound I-6, {(1R,2R,3S,4R)-4-[(6-{[(1S)-4,7-difluoro-2,3-dihydro-1H-inden-1-yl]amino}-pyrimidin-4-yl)amino]-2,3-dihydroxycyclopentyl}methyl sulfamate]
IC50 (bound given in nM): ≤ 500 nM

NS(=O)(=O)OC[C@H]1C[C@@H](Nc2ccnc(NCc3ccccc3)n2)[C@H](O)[C@@H]1O [Compound I-7, ((1R,2R,3S,4R)-4-{[2-(benzylamino)pyrimidin-4-yl]amino}-2,3-dihydroxycyclopentyl)methyl sulfamate]
IC50 (bound given in nM): > 500 nM | IC50 (bound given in μM): < 10000 nM

NS(=O)(=O)OC[C@H]1C[C@@H](Nc2cc(N[C@@H]3CCc4ccccc43)ncn2)[C@H](O)[C@@H]1O [Compound I-8, [(1R,2R,3S,4R)-4-({6-[(1R)-2,3-dihydro-1H-inden-1-ylamino]pyrimidin-4-yl}-amino)-2,3-dihydroxycyclopentyl]methyl sulfamate]
IC50 (bound given in nM): ≤ 500 nM

NS(=O)(=O)OC[C@H]1C[C@@H](Nc2ncnc3[nH]c(-c4ccccc4)nc23)[C@H](O)[C@@H]1O [Compound I-9, {(1R,2R,3S,4R)-2,3-dihydroxy-4-[(8-phenyl-9H-purin-6-yl)amino]cyclopentyl}-methyl sulfamate]
IC50 (bound given in nM): ≤ 500 nM

CC1CC(Nc2nccc(N[C@@H]3C[C@H](COS(N)(=O)=O)[C@@H](O)[C@H]3O)n2)c2ccccc21 (stereo partly drawn) [Compound I-10, [(1R,2R,3S,4R)-2,3-dihydroxy-4-({2-[(3-methyl-2,3-dihydro-1H-inden-1-yl)-amino]pyrimidin-4-yl}amino)cyclopentyl]methyl sulfamate]
IC50 (bound given in nM): ≤ 500 nM

NS(=O)(=O)OC[C@@H]1C[C@@H](Nc2cc(N[C@H]3CCc4ccccc43)ncn2)[C@H](O)[C@@H]1O [Compound I-11, [(1S,2R,3S,4R)-4-({6-[(1S)-2,3-dihydro-1H-inden-1-ylamino]pyrimidin-4-yl}-amino)-2,3-dihydroxycyclopentyl]methyl sulfamate]
IC50 (bound given in nM): ≤ 500 nM

NS(=O)(=O)OC[C@H]1C[C@@H](Nc2cc(N[C@H]3CCCc4ccccc43)ncn2)[C@H](O)[C@@H]1O [Compound I-12, [(1R,2R,3S,4R)-2,3-dihydroxy-4-({6-[(1S)-1,2,3,4-tetrahydronaphthalen-1-ylamino]pyrimidin-4-yl}amino)cyclopentyl]methyl sulfamate]
IC50 (bound given in nM): ≤ 500 nM

Cc1nc(N)cc(N[C@@H]2C[C@H](COS(N)(=O)=O)[C@@H](O)[C@H]2O)n1 [Compound I-13, {(1R,2R,3S,4R)-4-[(6-amino-2-methylpyrimidin-4-yl)amino]-2,3-dihydroxycyclopentyl}methyl sulfamate]
IC50 (bound given in μM): > 10000 nM

NS(=O)(=O)OC[C@H]1C[C@@H](Nc2cc(NCC3CCCCC3)ncn2)[C@H](O)[C@@H]1O [Compound I-14, [(1R,2R,3S,4R)-4-({6-[(cyclohexylmethyl)amino]pyrimidin-4-yl}amino)-2,3-dihydroxycyclopentyl]methyl sulfamate]
IC50 (bound given in nM): ≤ 500 nM

CC1(C)C[C@H](Nc2nccc(N[C@@H]3C[C@H](COS(N)(=O)=O)[C@@H](O)[C@H]3O)n2)c2ccccc21 [Compound I-15, {(1R,2R,3S,4R)-4-[(2-{[(1S)-3,3-dimethyl-2,3-dihydro-1H-inden-1-yl]amino}-pyrimidin-4-yl)amino]-2,3-dihydroxycyclopentyl}methyl sulfamate]
IC50 (bound given in nM): ≤ 500 nM

NS(=O)(=O)OC[C@H]1C[C@@H](NC(=O)c2cccnc2)[C@H](O)[C@@H]1O [Compound I-16, {(1R,2R,3S,4R)-2,3-dihydroxy-4-[(pyridin-3-ylcarbonyl)amino]cyclopentyl}-methyl sulfamate]
IC50 (bound given in nM): > 500 nM | IC50 (bound given in μM): < 10000 nM

NS(=O)(=O)OC[C@H]1C[C@@H](Nc2cc(N[C@H]3CCc4cc(F)c(F)cc43)ncn2)[C@H](O)[C@@H]1O [Compound I-17, {(1R,2R,3S,4R)-4-[(6-{[(1S)-5,6-difluoro-2,3-dihydro-1H-inden-1-yl]amino}-pyrimidin-4-yl)amino]-2,3-dihydroxycyclopentyl}methyl sulfamate]
IC50 (bound given in nM): ≤ 500 nM

Cc1nc(N[C@H]2CCc3ccccc32)cc(N[C@@H]2C[C@H](COS(N)(=O)=O)[C@@H](O)[C@H]2O)n1 [Compound I-18, [(1R,2R,3S,4R)-4-({6-[(1S)-2,3-dihydro-1H-inden-1-ylamino]-2-methylpyrimidin-4-yl}-amino)-2,3-dihydroxycyclopentyl]methyl sulfamate]
IC50 (bound given in nM): ≤ 500 nM

NS(=O)(=O)OC[C@H]1C[C@@H](Nc2cc(N[C@H]3CCc4cc(Cl)ccc43)ncn2)[C@H](O)[C@@H]1O [Compound I-19, {(1R,2R,3S,4R)-4-[(6-{[(1S)-5-chloro-2,3-dihydro-1H-inden-1-yl]amino}-pyrimidin-4-yl)-amino]-2,3-dihydroxycyclopentyl}methyl sulfamate]
IC50 (bound given in nM): ≤ 500 nM

CN(Cc1ccccc1)c1nccc(N[C@@H]2C[C@H](COS(N)(=O)=O)[C@@H](O)[C@H]2O)n1 [Compound I-20, [(1R,2R,3S,4R)-4-({2-[benzyl(methyl)amino]pyrimidin-4-yl}amino)-2,3-dihydroxycyclopentyl]methyl sulfamate]
IC50 (bound given in μM): > 10000 nM

CC1(C)C[C@H](Nc2cc(N[C@@H]3C[C@H](COS(N)(=O)=O)[C@@H](O)[C@H]3O)ncn2)c2ccccc21 [Compound I-21, {(1R,2R,3S,4R)-4-[(6-{[(1S)-3,3-dimethyl-2,3-dihydro-1H-inden-1-yl]amino}-pyrimidin-4-yl)amino]-2,3-dihydroxycyclopentyl}methyl sulfamate]
IC50 (bound given in nM): ≤ 500 nM

CN(Cc1ccccc1)c1cc(N[C@@H]2C[C@H](COS(N)(=O)=O)[C@@H](O)[C@H]2O)ncn1 [Compound I-22, [(1R,2R,3S,4R)-4-({6-[benzyl(methyl)amino]pyrimidin-4-yl}amino)-2,3-dihydroxycyclopentyl]methyl sulfamate]
IC50 (bound given in μM): > 10000 nM
